ChEMBL document CHEMBL3039007, “Structure-based identification of OATP1B1/3 inhibitors” (Mol Pharmacol, 2013)

Columns and labels:
[1] = target: T1, Solute carrier organic anion transporter family member 1B3 (Homo sapiens, UniProt Q9NPD5); settings: chinese hamster, cho, 10 µM
T1 sequence (Q9NPD5 whole entry): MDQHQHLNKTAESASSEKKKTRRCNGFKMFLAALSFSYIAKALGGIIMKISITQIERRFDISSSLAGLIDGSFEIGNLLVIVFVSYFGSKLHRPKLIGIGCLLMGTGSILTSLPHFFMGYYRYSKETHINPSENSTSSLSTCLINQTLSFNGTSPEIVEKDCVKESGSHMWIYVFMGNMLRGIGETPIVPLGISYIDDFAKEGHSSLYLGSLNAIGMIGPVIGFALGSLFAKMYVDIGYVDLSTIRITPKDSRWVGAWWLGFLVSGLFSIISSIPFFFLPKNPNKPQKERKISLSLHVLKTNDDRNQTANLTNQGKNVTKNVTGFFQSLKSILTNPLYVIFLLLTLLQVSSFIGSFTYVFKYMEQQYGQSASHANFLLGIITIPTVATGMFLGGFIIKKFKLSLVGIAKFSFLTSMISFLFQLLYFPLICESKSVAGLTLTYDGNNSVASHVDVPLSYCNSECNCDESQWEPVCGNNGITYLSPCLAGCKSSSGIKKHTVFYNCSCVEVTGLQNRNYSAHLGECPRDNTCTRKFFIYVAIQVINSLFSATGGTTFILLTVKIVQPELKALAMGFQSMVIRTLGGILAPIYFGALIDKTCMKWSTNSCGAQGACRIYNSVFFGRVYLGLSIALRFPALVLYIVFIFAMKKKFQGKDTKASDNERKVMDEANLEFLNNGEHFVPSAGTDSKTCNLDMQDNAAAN

[2] = target: T2, Solute carrier organic anion transporter family member 1B1 (Homo sapiens, UniProt Q9Y6L6); settings: chinese hamster, cho, 10 µM
T2 sequence (Q9Y6L6 whole entry): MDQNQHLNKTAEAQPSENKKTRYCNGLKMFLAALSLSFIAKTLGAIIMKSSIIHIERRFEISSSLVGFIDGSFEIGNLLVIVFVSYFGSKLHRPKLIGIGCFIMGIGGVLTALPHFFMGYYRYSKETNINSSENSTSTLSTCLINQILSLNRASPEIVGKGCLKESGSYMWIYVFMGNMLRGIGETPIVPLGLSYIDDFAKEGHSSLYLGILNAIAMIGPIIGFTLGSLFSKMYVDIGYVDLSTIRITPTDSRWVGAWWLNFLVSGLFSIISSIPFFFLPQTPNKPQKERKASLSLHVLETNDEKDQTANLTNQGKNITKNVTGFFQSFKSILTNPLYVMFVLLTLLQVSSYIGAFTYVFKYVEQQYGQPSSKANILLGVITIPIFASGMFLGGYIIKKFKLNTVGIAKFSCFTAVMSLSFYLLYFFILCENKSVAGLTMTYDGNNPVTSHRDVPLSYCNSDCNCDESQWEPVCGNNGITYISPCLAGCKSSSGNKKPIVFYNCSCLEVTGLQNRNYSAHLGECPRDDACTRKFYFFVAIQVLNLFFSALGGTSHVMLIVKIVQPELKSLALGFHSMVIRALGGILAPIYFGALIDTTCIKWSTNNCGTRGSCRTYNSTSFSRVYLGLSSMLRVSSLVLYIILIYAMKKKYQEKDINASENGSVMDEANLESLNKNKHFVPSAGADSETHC

[3] = target: T1, Solute carrier organic anion transporter family member 1B3
[4] = target: T2, Solute carrier organic anion transporter family member 1B1
[5] = target: T2, Solute carrier organic anion transporter family member 1B1; remark: listed apart in the source
[6] = target: T1, Solute carrier organic anion transporter family member 1B3; remark: listed apart in the source

CC(C)CCCC1(C)C=Cc2c(O)c3c(c(CCC(C)C)c2O1)OC12C(CC4CC1C(C)(C)OC2(CCC(C)C(=O)O)C4O)C3=O (stereo unspecified) [DECAHYDROGAMBOGIC ACID]
residual activity [1]: 18.17%
residual activity [2]: 12.82%
Ki [3]: 1770 nM
Ki [4]: 620 nM
IC50 [5]: 1150 nM
IC50 [6]: 2290 nM
